# Measured values from publication PMC8344022, “Small-molecule inhibitor of AF9/ENL-DOT1L/AF4/AFF4 interactions suppresses malignant gene expression and tumor growth” (Theranostics, 2021).
# No end group written: not given here.
# Tests used:
# [1] = test system: nuclear protein levels in Molm-13 cells; test: Western blot of nuclear proteins; format: cell-based; conditions: 3 days
# Procedure: Next, we investigated how compound 1 affects these transcription cofactors in the nucleus, where they regulate gene expression. […] DOT1L inhibitor EPZ4777 [25] reduced the methylation levels of H3K79, but not other proteins (Figure 3B). […] In this regard, despite lack of activity against DOT1L, compound 1 can mimic EPZ4777 to reduce H3K79 methylation.
# Western blot. 3x10^6 cells/well were treated with increasing concentrations of a compound for 3 days and nuclear proteins extracted with the EpiQuik Nuclear Extraction Kit (Epigentek) according to the manufacturer's protocol. Equal amounts of proteins were separated on SDS-PAGE and transferred to PVDF membranes. The blots were probed with primary antibodies, followed by anti-rabbit or anti-mouse IgG (Thermo Scientific) secondary antibodies. The primary antibodies used in this research were MBP Mouse mAb (#2396, Cell signaling), DOT1L Rabbit mAb (#77087, Cell signaling), MLL-N Rabbit mAb (#14689, Cell signaling), ENL Rabbit mAb (#14893, Cell signaling), Di-Methyl-Histone H3K79 Rabbit mAb (#5427, Cell signaling), Mono-Methyl-Histone H3K79 Rabbit mAb (#9398, Cell signaling), Histone H3 Rabbit mAb (#4499, Cell signaling), AF4 Rabbit pAb (#NBP1-28705, Novusbio) and AFF4 Rabbit pAb (#ab103586, Abcam).
# MCF-7 cells = test: Antiproliferation assay (MTT); format: cell-based; conditions: 14-day incubation, read-out: Cytotoxicity EC50
# Procedure: (§1) Antiproliferation assay. Proliferation inhibition assays for suspension blood cancer cells were performed using an XTT assay kit (Roche). Proliferation inhibition assays for solid tumor cell lines MCF-7, MDA-MB-231, Panc1, Panc28 were performed using an MTT assay (Sigma). The antiproliferation EC50 values were determined using Prism 5 and the reported results were the mean values of at least three independent experiments. The incubation time for compound 1 was 7 days and that for EPZ4777 was 14 days.
# Panc-1 cells = test: Antiproliferation assay (MTT); format: cell-based; conditions: 14-day incubation, read-out: Cytotoxicity EC50
# Procedure: as §1
# Panc-28 cells = test: Antiproliferation assay (MTT); format: cell-based; conditions: 14-day incubation, read-out: Cytotoxicity EC50
# Procedure: as §1
# MDA-MB-231 cells = test: Antiproliferation assay (MTT); format: cell-based; conditions: 14-day incubation, read-out: Cytotoxicity EC50
# Procedure: as §1
# THP-1 cells = test system: THP-1 cells; parameters: method as in earlier work; conditions: read-out: Cytotoxicity EC50; cited from earlier work
# RPMI-8226 cells = test: Antiproliferation assay (XTT); format: cell-based; conditions: 14-day incubation, read-out: Cytotoxicity EC50
# Procedure: as §1
# Molm-13 cells = test: Antiproliferation assay (XTT); format: cell-based; conditions: 14-day incubation, read-out: Cytotoxicity EC50
# Procedure: as §1
# MV4;11 cells = test: Antiproliferation assay (XTT); format: cell-based; conditions: 14-day incubation, read-out: Cytotoxicity EC50
# Procedure: as §1
# U266 cells = test: Antiproliferation assay (XTT); format: cell-based; conditions: 14-day incubation, read-out: Cytotoxicity EC50
# Procedure: as §1
# [2] = test system: H3K79me2 at gene promoters in Molm-13 cells; test: Chromatin immunoprecipitation (ChIP)-qPCR; format: cell-based; conditions: 2 μM
# Procedure: (§2) Next, compound 1 was tested for its ability to change expression of characteristic MLL-r leukemia genes HoxA9, Meis1 and Myc. Myc is also overexpressed in a broad range of AML and other cancers. […] (Figure S5), presumably because SEC is not recruited there.
# Chromatin immunoprecipitation. […] Cells were lysed with nuclear lysis buffer and sonicated to ~100-1000 bp fragments, which was incubated at 4 °C overnight with the H3K79me2 antibody (#5427, Cell signaling) and IgG (C15410206, Diagenode). Protein A/G Magnetic Beads (10 µL, Novus Biologicals) were added and incubated for 2 h. The beads were washed 3x with RIPA buffer and 2x with TE buffer. DNA on the beads was eluted for 2 hours at 68 °C in 100 μL of an elution buffer (20 mM Tris pH 7.5, 5 mM EDTA, 50 mM NaCl, 1% SDS, 50 μg/ml proteinase K) (2x), and purified using a ChIP DNA Clean & Concentrator kit (Novus Biologicals). qPCR was done using the method described above.
# Jurkat cells = test system: Jurkat cells; parameters: method as in earlier work; conditions: read-out: Cytotoxicity EC50; cited from earlier work
# HL60 cells = test system: HL60 cells; parameters: method as in earlier work; conditions: read-out: Cytotoxicity EC50; cited from earlier work
# Kasumi-1 cells = test system: Kasumi-1 cells; parameters: method as in earlier work; conditions: read-out: Cytotoxicity EC50; cited from earlier work
# [3] = test system: HoxA9, Meis1 and Myc expression in Molm-13 cells; test: qPCR of MLL target genes; format: cell-based; conditions: 4 days
# Procedure: as §2
# (§3) RNA extraction and Quantitative real-time PCR (qPCR). 10^5 cells/ml were incubated with a compound for 4 days and the RNA was extracted using RNeasy mini kit (#74104, Qiagen). 100-1000 ng of total RNA was reverse transcribed using iScript™ Reverse Transcription Supermix (Bio-Rad) using the manufacturer's protocol. Quantitative real-time PCR was carried out using Fast SYBR Green Master Mix (Applied Biosystems) according to the manufacturer's instructions. Measurements were performed in triplicate, using GAPDH as the reference gene. Real-time PCR was performed using Biosystems Step One Plus detection system. The following sequences of primers are used: […]
# [4] = test system: HoxA9, Meis1 and Myc expression in MV4;11 cells; test: qPCR of MLL target genes; format: cell-based; conditions: 4 days
# Procedure: as §2, §3
# AF9-AFF4 interaction = target: T1, AF9-AFF4 interaction (Homo sapiens, UniProt P42568); test: Alpha assay, AF9-AFF4 interaction; format: binding; conditions: read-out: IC50, inhibition of AF9-AFF4 interaction
# T1 construct: cDNA for human AF9 AHD domain (475-568) and ENL AHD domain (489-559) was synthesized; made in house; host or cells: E. coli BL21(DE3)
# Procedure: (§4) ENL is also a major MLL fusion partner (~10%). The AHD domains of human ENL and AF9 share a high homology with 82% identity and 89% similarity (Figure S1A). […] Our attempts to develop an Alpha assay for ENL-DOT1L failed. […] Compound 1's activity against ENL-DOT1L was therefore not determined.
# (§5) Alpha assays. Alpha assays were developed using Perkin-Elmer AlphaLisa anti-MBP kit, which contains streptavidin donor beads and anti-MBP acceptor beads. The assay was performed using a MBP-protein (5 nM), a biotinylated peptide (40 nM), and increasing concentrations of a compound in 25 µL buffer (PBS with 0.5 % BSA, pH 7.5) in 384-well plates according to the manufacturer's protocol and measured with a Tecan SPARK microplate reader. Data were imported into Prism (version 5.0), and IC50 values from 3 independent experiments with standard deviation were obtained by using a standard dose-response curve fitting.
# AF9-AF4 interaction = target: T2, AF9-AF4 interaction (Homo sapiens, UniProt P42568); test: Alpha assay, AF9-AF4 interaction; format: binding; conditions: read-out: IC50, inhibition of AF9-AF4 interaction
# T2 construct: cDNA for human AF9 AHD domain (475-568) and ENL AHD domain (489-559) was synthesized; made in house; host or cells: E. coli BL21(DE3)
# Procedure: as §4, §5
# AF9-DOT1L interaction [5] = target: T3, AF9-DOT1L interaction (Homo sapiens, UniProt P42568); test: Alpha assay, AF9 AHD-DOT1L peptide interaction; format: binding; conditions: read-out: IC50, inhibition of AF9-DOT1L interaction
# T3 construct: cDNA for human AF9 AHD domain (475-568) and ENL AHD domain (489-559) was synthesized; made in house; host or cells: E. coli BL21(DE3)
# T3 sequence (P42568 475-568): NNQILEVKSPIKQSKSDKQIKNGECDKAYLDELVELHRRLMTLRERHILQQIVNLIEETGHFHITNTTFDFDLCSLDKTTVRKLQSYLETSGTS
# Source text: (§6) We developed an Alpha (amplified luminescent proximity homogeneous assay) assay to determine the binding and inhibition of the PPI between maltose-binding protein (MBP)-tagged AF9 AHD and a biotin-labeled DOT1L peptide, using AlphaLisa streptavidin donor beads and anti-MBP acceptor beads. Laser excitation to the donor beads generates singlet oxygen radicals, which can travel for <200 nm in solution and cannot reach the free acceptor beads. The PPI brings the DOT1L coated donor beads and AHD coated acceptor beads together, allowing the radicals to activate the acceptor beads and produce luminescence. […] We also developed a fluorescence polarization (FP) assay. A fluorescein-labeled DOT1L peptide has a higher freedom in solution with a lower polarization value.
# as §5
# AF9-DOT1L interaction [6] = target: T3, AF9-DOT1L interaction; test: Fluorescence polarization (FP) inhibition assay, AF9-DOT1L; format: binding
# Source text: as §6
# Fluorescence polarization assay. It was performed in 96-well black microplates with each well containing a Fluorescein-labeled peptide (2 nM) and increasing concentration of a AF9/ENL protein in a buffer (20 mM HEPES, pH 7.5, 0.01% Triton X-100, 100 µL) for Kd determination. For IC50 determination, a Fluorescein-labeled peptide (2 nM), AF9/ENL protein (100 nM) and increasing concentration of a compound in the same buffer were placed in each well. Upon incubation of 1h, the FP value of each well was determined using a Tecan SPARK microplate reader. Data were similarly processed to obtain Kd or IC50 values.
# ENL-AFF4 interaction = target: T4, ENL-AFF4 interaction (Homo sapiens, UniProt Q03111); test: Alpha assay, ENL-AFF4 interaction; format: binding; conditions: read-out: IC50, inhibition of ENL-AFF4 interaction
# T4 construct: ENL AHD domain (489-559) was synthesized (by Genscript) and inserted into the pMAL c5X expression plasmid; made in house; host or cells: E. coli BL21(DE3)
# T4 sequence (Q03111 489-559): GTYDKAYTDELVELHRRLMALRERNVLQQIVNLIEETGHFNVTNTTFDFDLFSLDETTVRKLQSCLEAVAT
# Procedure: as §4, §5
# ENL-AF4 interaction = target: T5, ENL-AF4 interaction (Homo sapiens, UniProt Q03111); test: Alpha assay, ENL-AF4 interaction; format: binding; conditions: read-out: IC50, inhibition of ENL-AF4 interaction
# T5 construct: ENL AHD domain (489-559) was synthesized (by Genscript) and inserted into the pMAL c5X expression plasmid; made in house; host or cells: E. coli BL21(DE3)
# T5 sequence (Q03111 489-559): as above
# Procedure: as §4, §5
compound,measurement,setting,value
"CC(C)N(CCCNC(=O)Nc1ccc(C(C)(C)C)cc1)C[C@H]1O[C@@H](n2ccc3c(N)ncnc32)[C@H](O)[C@@H]1O [EPZ4777, reference compound]","Nuclear levels of DOT1L, H3K79me1 and me2, ENL and AFF4",[1],"only reduced those of H3K79me1 and me2, but not other proteins"
same,EC50,MCF-7 cells,> 50000 nM
same,EC50,Panc-1 cells,> 50000 nM
same,EC50,Panc-28 cells,> 50000 nM
same,EC50,MDA-MB-231 cells,> 50000 nM
same,EC50,THP-1 cells,3400 nM
same,EC50,RPMI-8226 cells,> 50000 nM
same,EC50,Molm-13 cells,1200 ± 200 nM
same,EC50,MV4;11 cells,1100 ± 300 nM
same,EC50,U266 cells,> 50000 nM
same,H3K79me2 in the gene promoters of HoxA9 and Myc,[2],decreased levels of H3K79me2
same,EC50,Jurkat cells,> 50000 nM
same,EC50,HL60 cells,> 50000 nM
same,EC50,Kasumi-1 cells,33000 nM
same,"Expression of MLL target genes HoxA9, Meis1 and Myc",[3],behaved similarly
same,"Expression of MLL target genes HoxA9, Meis1 and Myc",[4],behaved similarly
NKLPVSIPLASVVLPSRAERARST [DOT1L],IC50,AF9-AFF4 interaction,95 ± 16 nM
same,IC50,AF9-AF4 interaction,60 ± 12 nM
same,IC50,AF9-DOT1L interaction [5],13 ± 1 nM
same,IC50,AF9-DOT1L interaction [6],72 nM
same,IC50,ENL-AFF4 interaction,2000 ± 100 nM
same,IC50,ENL-AF4 interaction,13200 ± 1100 nM
